How the values were obtained:
KLN = test: Cell growth assay (sulforhodamine B), KLN cells; format: cell-based, mouse; conditions: Mus musculus, 120 h, 5 days, SRB
Method: […] Plates were then incubated with 0.4% SRB in 1% acetic acid for 1 h, washed with 1% acetic acid to remove the unbound dye, and air-dried. The bound dye was solubilized by addition of 10 mM Tris (pH 10), and the absorbance was determined in a Titertek Multiscan plate reader at 490 nm. The data calculations were carried out as described (the values for mean±SD of data from replicate wells are calculated): data are expressed in terms of % T/C [(OD of treated cells/OD of control cells)×100], as a measure of cell viability and survival in the presence of test materials. Calculations are also made for the concentration of test agents giving a T/C value of 50%, or 50% growth inhibition (IC50). With the SRB assay, a measure is made of the cell population density at time 0 (the time at which drugs are added) from two extra reference plates of inoculated cells fixed with TCA just prior to drug addition to the test plates. Thus, we have three measurements: control optical density (C), test optical density (T), and optical density at time zero (T0). The calculation is 100×[(T−T0)/(C−T0)]. If T is less than T0, cell killing has occurred and can be calculated from 100×[(T−T0)/T0]. Thus, for each drug-cell line combination, a dose-response curve is generated and three levels of effect are calculated.

CRL-2813 = test: Cell growth assay (sulforhodamine B), CRL-2813 cells; format: cell-based, human; conditions: Homo sapiens, CRL2813, 120 h, 5 days, SRB
Method: (§1) Adherent mouse (KLN) and human solid tumor cells (CRL-2351, and CRL-2813) were plated in 96-well plates and maintained for 5 days in the presence of 0.54 to 6 μM of individual compound, and cell proliferation was measured by the sulforhodamine B (SRB) assay as described in ref. 11: briefly, cells were fixed in 10% cold trichloroacetic acid at 4° C. for 1 h, extensively washed with double-distilled H2O and air-dried. Plates were then incubated with 0.4% SRB in 1% acetic acid for 1 h, washed with 1% acetic acid to remove the unbound dye, and air-dried. The bound dye was solubilized by addition of 10 mM Tris (pH 10), and the absorbance was determined in a Titertek Multiscan plate reader at 490 nm. The data calculations were carried out as described (the values for mean±SD of data from replicate wells are calculated): data are expressed in terms of % T/C [(OD of treated cells/OD of control cells)×100], as a measure of cell viability and survival in the presence of test materials. Calculations are also made for the concentration of test agents giving a T/C value of 50%, or 50% growth inhibition (IC50). With the SRB assay, a measure is made of the cell population density at time 0 (the time at which drugs are added) from two extra reference plates of inoculated cells fixed with TCA just prior to drug addition to the test plates. Thus, we have three measurements: control optical density (C), test optical density (T), and optical density at time zero (T0). The calculation is 100×[(T−T0)/(C−T0)]. If T is less than T0, cell killing has occurred and can be calculated from 100×[(T−T0)/T0]. Thus, for each drug-cell line combination, a dose-response curve is generated and three levels of effect are calculated.

CRL-2351 = test: Cell growth assay (sulforhodamine B), CRL-2351 cells; format: cell-based, human; conditions: Homo sapiens, 120 h, 5 days, SRB
Method: as §1

[1] = test system: eIF2•GTP•Met-tRNAi ternary complex; test: Ternary complex assay (ATF-4 assay), dual luciferase firefly/renilla ratio; format: cell-based, mouse; conditions: Mus musculus; for maximal fold induction at 2.5 µM / maximal fold induction at 80 µM / maximal fold induction at 20 µM: read-out: ATF-4 Xmax; for maximal fold induction at 40 µM: read-out: ATF-4 Xmax @ 40 μM
Source text: For assay development, a bi-directional plasmid was designed in which a common promoter/enhancer complex drives the transcription of firefly luciferase (F-luc) ORF fused to the 5′ untranslated region (UTR) of ATF-4, and of the renilla luciferase (R-luc) ORF fused to a 90-nucleotide 5′ UTR derived from the plasmid (FIG. 6A). Because the tetracycline-regulated transactivator ((tTA), required for driving transcription from this vector) is not normally expressed in the mammalian cells, stable KLN cancer cells were constructed that expressed tTA (KLN-tTA).
The KLN-tTA colonies that drove expression of reporter genes from pBISA-DL plasmid were selected by transient transfection and dual luciferase assay. One of these KLN-tTA cell lines was transfected with the pBISA-DL^(ATF-4) expression vector, stable colonies were selected by dual luciferase assay and expanded.
Plasmids and Ternary Complex Assay
(ATF-4 Assay). Briefly, bi-directional mammalian expression vector pBI (Clontech, CA) was modified to expand the multiple cloning sites (MCSs) and designated thereafter as pBISA. This vector contains seven copies of the tetracycline-regulated transactivator response element (TRE), which together act as core promoter/enhancer. The TRE is flanked on both sides by minimal human cytomegalovirus (CMV) minimal promoters allowing bi-directional transcription and two MCSs. Firefly and renilla luciferases were subcloned into MCS-I and MCS-II, respectively. This plasmid, designated pBISA-DL, transcribes two mRNAs that contain the 90 nucleotide plasmid derived 5′UTR (same sequence in both mRNAs), and the ORF encoding either firefly or renilla luciferase followed by a polyadenylation sequence as described in Ziegeler, G.; Ming, J.; Koseki, J. C.; Sevinc, S.; Chen, T.; Ergun, S.; Qin, X.; Aktas, B. H. J. Biol. Chem. 2010, 285, 15408 hereby incorporated by reference. This plasmid was further modified by inserting the 5′UTR of ATF-4 into MCS-I in front of the firefly luciferase mRNA. Transcription from this direction generates an mRNA that contains the firefly luciferase ORF preceded by a 5′UTR composed of 90 nucleotides derived from the plasmid and 267 nucleotides derived from the 5′UTR of ATF-4 mRNA. Transcription from the other direction generates an mRNA that contains the renilla luciferase ORF proceeded only by the 90-nucleotide plasmid-derived sequence in the 5′UTR. This expression plasmid is called pBISA-DL(ATF-4). In the dual luciferase assay, cells expressing firefly and renilla luciferases were lysed and the extracts assayed with a Dual-Glo Luciferase assay kit, per manufacturer's instruction (Promega Inc., Madison, Wis.). The data calculations were carried out as the ratio of firefly to renilla luciferase signal as described in Chen, T.; Ozel, D.; Qiao, Y.; Harbinski, F.; Chen, L.; Denoyelle, S.; He, X.; Zvereva, N.; Supko, J. G.; Chorev, M.; Halperin, J. A.; Aktas, B. H. Nat. Chem. Biol. 2011, 7, 610 hereby incorporated by reference.

Compound	IC50 (KLN)	IC50 (CRL-2813)	IC50 (CRL-2351)	maximal fold induction at 2.5 µM [1]	maximal fold induction at 40 µM [1]	maximal fold induction at 80 µM [1]	maximal fold induction at 20 µM [1]
CC(C)(C)c1ccc(OCCN2CCCC2)c(C2(c3cc(C(C)(C)C)ccc3OCCN3CCCC3)C(=O)N(CCN3CCCC3)c3ccccc32)c1 [HY193]	2.11 ± 1.1 µM	1.47 ± 1 µM	0.55 ± 0.17 µM	12.1 ± 1.8	9.09	–	–
CC(C)(C)c1ccc(OCC(=O)O)c(C2(c3ccccc3)C(=O)Nc3ccccc32)c1 (stereo not shown) [Sd177]	> 20 µM	> 20 µM	> 20 µM	–	–	1.65 ± 0.04	–
CCN(CC)CCOc1ccc(C(C)(C)C)cc1C1(c2cc(C(C)(C)C)ccc2OCCN(CC)CC)C(=O)N(CCN(CC)CC)c2ccccc21 [HY296]	1.6 ± 0.5 µM	0.72 ± 0.23 µM	0.59 ± 0.26 µM	14.3 ± 0.78	–	–	–
CC(C)(C)c1ccc(OCCN2CCOCC2)c(C2(c3ccccc3)C(=O)Nc3ccccc32)c1 (stereo not shown) [Sd029, 3-(5-tert-Butyl-2-(2-morpholinoethoxy)phenyl)-3-phenylindolin-2-one]	6.8 ± 3.7 µM	2.4 ± 0.3 µM	3.35 ± 0.3 µM	–	4 ± 0.1	–	–
CCCCc1ccc(O)c(C2(c3cc(CCCC)ccc3O)C(=O)Nc3ccccc32)c1 [HY048, 3,3-Bis(5-Butyl-2-Hydroxyphenyl)Indolin-2-One]	14.3 ± 1.6 µM	3 µM	1.9 ± 0.5 µM	–	–	–	5 ± 1.5
CC(C)c1ccc(O)c(C2(c3cc(C(C)C)ccc3O)C(=O)Nc3ccccc32)c1 [HY050, 3,3-Bis(2-Hydroxy-5-Isopropylphenyl)Indolin-2-One]	15.2 ± 2 µM	2.9 ± 0.3 µM	2.6 ± 0.5 µM	–	–	–	3.34 ± 0.07
Cc1cc(C2(c3cc(C(C)(C)C)ccc3O)C(=O)Nc3ccccc32)ccc1Cl (stereo not shown) [HY017, 3-(5-tert-Butyl-2-Hydroxyphenyl)-3-(4-Chloro-3-Methylphenyl)Indolin-2-One]	4.3 ± 1 µM	2.9 ± 0.1 µM	2.9 ± 0.1 µM	–	0.65 ± 0.7	–	–
CC(C)(C)c1ccc(O)c(C2(c3ccccc3)C(=O)Nc3ccc4ncsc4c32)c1 (stereo not shown) [Sd233]	8 µM	0.95 ± 0.1 µM	2.2 ± 1 µM	–	1.2 ± 0.05	–	–
COc1ccc(C2(c3cc(C(C)(C)C)ccc3OCCN3CCOCC3)C(=O)Nc3ccccc32)cc1F (stereo not shown) [Sd205]	3.4 ± 1.2 µM	2.7 ± 0.4 µM	2.5 ± 0.6 µM	–	–	5.2 ± 2.1	–
CC(C)(C)c1ccc(O)c(C2(c3ccccc3)C(=O)Nc3ccc(OC(F)(F)F)cc32)c1 (stereo not shown) [Sd224]	8 µM	1 µM	2.5 ± 0.9 µM	–	2.56 ± 0.3	–	–
CN(C)CCOc1ccc(C(C)(C)C)cc1C1(c2cc(C(C)(C)C)ccc2O)C(=O)Nc2ccccc21 (stereo not shown) [HY077]	1.7 ± 0.9 µM	1.2 ± 0.4 µM	1.9 ± 1 µM	–	–	–	4.65 ± 0.88
CC(=O)OCCOc1ccc(C(C)(C)C)cc1C1(c2cc(C(C)(C)C)ccc2OCCOC(C)=O)C(=O)Nc2ccccc21 [HY184]	> 20 µM	2 µM	2 µM	–	–	2.07 ± 1.6	–
CC(C)(C)c1ccc(O)c(C2(c3ccc(CN4CCOCC4)cc3)C(=O)Nc3ccccc32)c1 (stereo not shown) [HY016, 3-(5-tert-butyl-2-hydroxyphenyl)-3-(4-(Morpholinomethyl)phenyl)Indolin-2-One]	17.3 ± 2.4 µM	7.8 ± 0.66 µM	7.3 ± 3.6 µM	–	–	8.5 ± 5.3	–
CC(C)(C)c1ccc(O)c(C2(c3cccnc3)C(=O)Nc3ccccc32)c1 (stereo not shown) [HY003, 3-(5-tert-Butyl-2-Hydroxyphenyl)-3-(Pyridin-3-yl)Indolin-2-One]	> 20 µM	11.5 ± 1.8 µM	6.4 ± 3 µM	–	–	1.67	–
O=C1Nc2ccccc2C1(c1cc(C2CCCC2)ccc1OCCO)c1cc(C2CCCC2)ccc1OCCO [HY058]	15.2 ± 1.1 µM	1.3 ± 0.4 µM	2.4 ± 0.1 µM	–	–	–	3.35 ± 0.74
CCN(C)CCOc1ccc(C(C)(C)C)cc1C1(c2cc(C(C)(C)C)ccc2O)C(=O)Nc2ccccc21 (stereo not shown) [HY301]	4.6 ± 1.2 µM	1.5 ± 0.7 µM	0.9 ± 0.2 µM	–	–	–	15.1 ± 1.04
CC(C)(C)c1ccc(OCCN2CCNCC2)c(C2(c3ccccc3)C(=O)Nc3ccccc32)c1 (stereo not shown) [Sd049, 33-{5-tert-butyl-2-[2-(piperazin-1-yl)ethoxy]phenyl}-3-phenylindol-2-one]	1.2 ± 0.3 µM	12.8 ± 0.8 µM	0.9 ± 0.1 µM	–	–	–	2.1 ± 0.65
CC(C)Oc1ccc(O)c(C2(c3ccccc3)C(=O)Nc3ccccc32)c1 (stereo not shown) [HY032, 3-(2-Hydroxy-5-Isopropoxyphenyl)-3-Phenylindolin-2-One]	16.1 ± 2.2 µM	10.5 ± 1.9 µM	4.8 ± 1.6 µM	–	4.65 ± 0.58	–	–

Reference: patent US20160106711A1, “3-3-Di-Substituted-Oxindoles as Inhibitors of Translation Initiation” (President and Fellows of Harvard College, priority 2012, published 2016)
